In patent publication US10104890B2, “Compositions and methods for controlling pesticide resistant pests” (Rothamsted Research Limited, priority 2011, dated 2018):

System: Myzus persicae clone 5191A
Format: in vivo
Details: for LC50 (lethal concentration to kill 50% of the population): LC50 of imidacloprid, alone or after 5 h pre-treatment with 0.25 μL of 1 g L−1 synergist, apterous aphids, topical, scored 72 h after treatment, probit analysis; for SF = synergism factor (LC50 unsynergised/LC50 synergised): with imidacloprid, 1 g L−1 synergist, 5 h pre-treatment, clone 5191A
Method: Aphids for bioassays were reared on Chinese cabbage leaves (Brassica rapa L. var. Pekinensis c.v Wong Bok) (Brassicaceae) in small plastic box-cages (Blackman boxes) (Stewart Plastics Ltd, Surrey, UK) maintained at 18±2° C. with a 16 h light: 8 h dark photoperiod. Each box contained two adult aphids placed on a leaf and left for 5 days to produce nymphs. After the 5th day the adults were removed and their esterase levels determined to ensure that no contamination or loss of esterase expression (reversion) among the different clones had occurred during the rearing process. After approximately 13-15 days adults were used for bioassays.
Clone 5191A was collected from tobacco in Greece in 2007, and established from a single parthenogenetic female.
Apterous aphids were transferred from Blackman boxes (section 2.1.1) to the abaxial surface of Chinese cabbage leaf discs (approximately 10 adults per leaf disc) held on 1% agar in plastic containers (4 cm in diameter, A.W. Gregory & Co Limited, Kent, UK). The upper edge of each container was coated with Fluon® (Whitford Plastics, Cheshire, UK) to prevent aphid escape from the leaf surface. Netted lids were added to ensure apterous aphids could not escape. After allowing 30 min for the aphids to settle, each was dosed with 0.25 μL of 1 g L^−1 synergist dissolved in acetone or acetone only using a Burkard microapplicator (Burkhard Scientific, Middx, UK). Synergist concentrations chosen conferred no significant mortality compared to the acetone control treatment in preliminary bioassays. Five hours later, aphids were further treated with 0.25 μL imidacloprid in acetone at a range of concentrations, at least 3 replicates per concentration per bioassay. Controls were treated with 0.25 μL of acetone or 1 g L^−1 synergist in acetone and after 5 h with a further 0.25 μL of acetone.
Treated aphids were kept at 18±2° C. and 16 h light: 8 h dark photoperiod and scored 72 h after treatment. Aphids incapable of co-ordinated movement (after gentle touching with a paint brush if necessary) were scored as dead. All bioassays were performed a minimum of three times.
Pooled raw data from at least three separate bioassays were analysed by probit analysis using the statistical programme PC Polo Plus (LeOra, Software, Berkeley, USA). Polo Plus programme calculated the concentrations required to kill 50% of the population (LC50), 95% confidence limits (CL95%), slopes with standard errors (SE), chi-square (χ2) and degrees of freedom (df). Natural response was also estimated when control mortality occurred.

| Structure (SMILES) | LC50 (lethal concentration to kill 50% of the population) [ppm] | SF = synergism factor (LC50 unsynergised/LC50 synergised) |
| --- | --- | --- |
| CC#CCOc1ccc2c(c1)OCO2 [EN 163] | 2.98 | 30.3 |
| CC#CCOc1cc2c(cc1CCC)OCO2 [EN 164] | 1.25 | 72.4 |
| CC#CCOc1cc2c(cc1CCC)CCO2 [EN 16-17] | 7.11 | 12.7 |
| CCCCOCCOCCOCc1cc2c(cc1CCC)OCO2 [PBO, piperonyl butoxide] | 6.22 | 14.5 |
| CC#COCc1ccc2c(c1)CCO2 [EN 16-18] | 18.4 | 4.91 |
| CCCCOCCOCCOCc1cc2c(cc1CCC)CCC2 [EN 14-5] | 41.5 | 2.17 |
| CCCCCCCCCCCCc1ccc2c(c1)OCO2 [EN 129] | 28.4 | 3.18 |
| CC#CCOCc1cc2c(cc1CCC)OCO2 [EN 126] | 0.31 | 292 |
| CC#CCO[C@H](C)c1ccc(OC)c(OC)c1 [EN 25-10] | 4.88 | 18.5 |
| CCCCOCCOCCOCc1cc2c(cc1CCC)CCO2 [EN 16-5] | 12.2 | 7.41 |
| O=[N+]([O-])NC1=NCCN1Cc1ccc(Cl)nc1 [imidacloprid] | 90.4 |  |
